Measured values taken from patent publication US9586986B2, “Substituted 7-deazapurine ribonucleosides for therapeutic uses” (Institute of Organic Chemistry and Biochemistry ASCR, v.v.i., priority 2014, dated 2017).

Columns and labels:
CCRF-CEM cells [1] = assay: Mitotic cells, pH3Ser10 antibody labeling (flow cytometry); type: cell-based, human; conditions: CCRF-CEM cells treated at IC50 for 24 hrs
Experimental: After the incubation period, cells were then washed with cold 1×PBS and fixed in 70% ethanol added dropwise and stored overnight at −20° C. Afterwards, cells were washed in hypotonic citrate buffer, treated with RNase (50 μg/mL) and stained with propidium iodide. Flow cytometry using a 488 nm single-beam laser (Becton Dickinson) was used for measurement. The data were analyzed according to the program ModFitLT (Verity), and apoptosis was expressed as the percentage of cells with a propidium content lower than that in the G0/G1 population. Half of the sample was used for pH3^ser10 antibody (Sigma) labeling and subsequent flow cytometry analysis of mitotic cells.
(§1) However, the major mechanism of action was inhibition of RNA synthesis (BrU incorporation). […] Cell cycle alterations (G1, S, G2/M) were not observed in treated cells under specified experimental conditions.

CCRF-CEM cells [2] = assay: BrdU incorporation analysis (DNA synthesis); type: cell-based, human; conditions: for BrdU+ (DNA synthesis), % of total cell populations: CCRF-CEM cells treated at IC50 for 24 hrs; for DNA synthesis inhibition in words: CCRF-CEM, IC50, 24 hours
Experimental: Cells were cultured as for cell cycle analysis. Before harvesting, they were pulse-labelled with 10 M 5-bromo-2′-deoxyuridine (BrdU) for 30 min. The cells were trypsinized, fixed with ice-cold 70% ethanol, incubated on ice for 30 min, washed with PBS, and resuspended in 2 M HCl for 30 min at room temperature to denature their DNA. Following neutralization with 0.1 M Na2B4O7, the cells were washed with PBS containing 0.5% Tween-20 and 1% BSA. They were then stained with primary anti-BrdU antibody (Exbio) for 30 min at room temperature in the dark. Cells were than washed with PBS and stained with secondary anti-mouse-FITC antibody (Sigma). The cells were then washed with PBS, incubated with propidium iodide (0.1 mg/mL) and RNAse A (0.5 mg/mL) for 1 h at room temperature in the dark, and finally analyzed by flow cytometry using a 488 nm single-beam laser (FACSCalibur, Becton Dickinson).
as §1

Structure (SMILES)	pH3Ser10+ (mitosis), % of total cell populations (CCRF-CEM cells [1]) [%]	BrdU+ (DNA synthesis), % of total cell populations (CCRF-CEM cells [2]) [%]	DNA synthesis inhibition in words (CCRF-CEM cells [2])
COc1ncnc2c1c(-c1ccoc1)cn2[C@@H]1O[C@H](CO)[C@@H](O)[C@H]1O [Compound 1b, 5-(Furan-3-yl)-4-methoxy-7-(β-D-ribofuranosyl)-7H-pyrrolo[2,3-d]pyrimidine]	1.6	44.2	–
CN(C)c1ncnc2c1c(-c1ccco1)cn2[C@@H]1O[C@H](CO)[C@@H](O)[C@H]1O [Compound 4a, 4-Dimethylamino-5-(furan-2-yl)-7-(β-D-ribofuranosyl)-7H-pyrrolo[2,3-d]pyrimidine]	1.5	50.6	–
COc1ncnc2c1c(-c1ccsc1)cn2[C@@H]1O[C@H](CO)[C@@H](O)[C@H]1O [Compound 1d, 4-Methoxy-7-(β-D-ribofuranosyl)-5-(thiophen-3-yl)-7H-pyrrolo[2,3-d]pyrimidine]	2.9	44.4	–
COc1ncnc2c1c(-c1ccco1)cn2[C@@H]1O[C@H](CO)[C@@H](O)[C@H]1O [Compound 1a, 5-(Furan-2-yl)-4-methoxy-7-(β-D-ribofuranosyl)-7H-pyrrolo[2,3-d]pyrimidine]	1.4	45.3	–
COc1ncnc2c1c(I)cn2[C@@H]1O[C@H](CO)[C@@H](O)[C@H]1O [Compound 1h, 5-iodo-4-methoxy-7-(β-D-ribofuranosyl)-7H-pyrrolo[2,3-d]pyrimidine, reference compound]	0.9	38.9	barely inhibited
CSc1ncnc2c1c(-c1ccco1)cn2[C@@H]1O[C@H](CO)[C@@H](O)[C@H]1O [Compound 2a, 5-(Furan-2-yl)-4-methylsulfanyl-7-(β-D-ribofuranosyl)-7H-pyrrolo[2,3-d]pyrimidine]	0.7	29.5	barely inhibited
CNc1ncnc2c1c(-c1ccco1)cn2[C@@H]1O[C@H](CO)[C@@H](O)[C@H]1O [Compound 3a, 5-(Furan-2-yl)-4-methylamino-7-(β-D-ribofuranosyl)-7H-pyrrolo[2,3-d]pyrimidine]	1.4	47.2	–
COc1ncnc2c1c(-c1cccs1)cn2[C@@H]1O[C@H](CO)[C@@H](O)[C@H]1O [Compound 1c, 4-Methoxy-7-(β-D-ribofuranosyl)-5-(thiophen-2-yl)-7H-pyrrolo[2,3-d]pyrimidine]	1.1	38.6	–
CN(C)c1ncnc2c1c(-c1ccsc1)cn2[C@@H]1O[C@H](CO)[C@@H](O)[C@H]1O [Compound 4d, 4-Dimethylamino-7-(β-D-ribofuranosyl)-5-(thiophen-3-yl)-7H-pyrrolo[2,3-d]pyrimidine]	0.7	36.1	barely inhibited
C#Cc1cn([C@@H]2O[C@H](CO)[C@@H](O)[C@H]2O)c2ncnc(N(C)C)c12 [Compound 4g, 4-Dimethylamino-5-ethynyl-7-(β-D-ribofuranosyl)-7H-pyrrolo[2,3-d]pyrimidine]	1.3	43.4	–
CN(C)c1ncnc2c1c(I)cn2[C@@H]1O[C@H](CO)[C@@H](O)[C@H]1O [Compound 4h, 4-Dimethylamino-5-iodo-7-(β-D-ribofuranosyl)-7H-pyrrolo[2,3-d]pyrimidine]	1.3	48.7	–
